Reference: patent publication US12421230B2, “Tricyclic heteroaryl compounds useful as IRAK4 inhibitors” (BRISTOL-MYERS SQUIBB COMPANY, priority 2020, dated 2025)

Target: T1, IRAK4 (Homo sapiens, UniProt Q9NWZ3)
T1 sequence (Q9NWZ3 1-460): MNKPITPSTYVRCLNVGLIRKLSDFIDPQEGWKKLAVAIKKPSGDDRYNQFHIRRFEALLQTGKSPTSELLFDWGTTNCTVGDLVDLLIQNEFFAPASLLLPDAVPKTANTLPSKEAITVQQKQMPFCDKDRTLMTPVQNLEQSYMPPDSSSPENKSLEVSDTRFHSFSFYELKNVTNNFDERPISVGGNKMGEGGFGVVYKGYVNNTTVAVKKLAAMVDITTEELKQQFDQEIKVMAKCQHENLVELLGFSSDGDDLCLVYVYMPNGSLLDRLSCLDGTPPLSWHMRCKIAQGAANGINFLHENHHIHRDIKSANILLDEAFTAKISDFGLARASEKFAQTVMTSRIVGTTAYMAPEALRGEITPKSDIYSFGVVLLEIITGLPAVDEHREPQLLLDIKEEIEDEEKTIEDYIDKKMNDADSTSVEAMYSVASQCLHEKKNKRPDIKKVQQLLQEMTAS
Test: IRAK4 Inhibition Assay
Assay type: biochemical
Details: ATP 500 μM; fluoresceinated peptide 1.5 μM; IRAK4 0.6 nM; 60 min room temperature; Caliper LABCHIP
Experimental: The assays were performed in U-bottom 384-well plates. The final assay volume was 30 μL prepared from 15 μL additions of enzyme and substrates (fluoresceinated peptide and ATP) and test compounds in assay buffer (20 mM HEPES pH 7.2, 10 mM MgCl2, 0.015% Brij 35 and 4 mM DTT). The reaction was initiated by the combination of IRAK4 with substrates and test compounds. The reaction mixture was incubated at room temperature for 60 min. and terminated by adding 45 μL of 35 mM EDTA to each sample. The reaction mixture was analyzed on the Caliper LABCHIP® 3000 (Caliper, Hopkinton, MA) by electrophoretic separation of the fluorescent substrate and phosphorylated product. Inhibition data were calculated by comparison to no enzyme control reactions for 100% inhibition and vehicle-only reactions for 0% inhibition. The final concentrations of reagents in the assays are ATP, 500 μM; FL-IPTSPITTTYFFFKKK peptide 1.5 μM; IRAK4, 0.6 nM; and DMSO, 1.6%.

| IC50 [nM] | Structure (SMILES) |
| --- | --- |
| 33 | CC(C)(O)CCNC(=O)c1cnc2c([nH]c3cc(C#N)ccc32)c1N[C@@H]1CCOC1 [Example 26, (R)-7-cyano-N-(3-hydroxy-3-methylbutyl)-4-((tetrahydrofuran-3-yl)amino)-5H-pyrido[3,2-b] indole-3-carboxamide] |
| 3.3 | CC(C)Nc1c(C(=O)NCCC(C)(C)N)cnc2c1[nH]c1cc(C#N)ccc12 [Example 52, N-(3-amino-3-methylbutyl)-7-cyano-4-(isopropylamino)-5H-pyrido[3,2-b]indole-3-carboxamide] |
| 27 | CC(C)Nc1c(C(=O)NC2CCOCC2)cnc2c1[nH]c1cc(C#N)ccc12 [Example 11, 7-cyano-4-(isopropylamino)-N-(tetrahydro-2H-pyran-4-yl)-5H-pyrido[3,2-b]indole-3-carboxamide] |
| 500 | CCCc1nc(-c2cnc3c([nH]c4cc(C#N)ccc43)c2NC(C)C)n[nH]1 [Example 71, 4-(isopropylamino)-3-(5-propyl-1H-1,2,4-triazol-3-yl)-5H-pyrido[3,2-b]indole carbonitrile] |
| 24 | CCNc1c(C(=O)NCCC2CCCCN2)cnc2c1[nH]c1cc(C#N)ccc12 (stereo not shown) [Example 58, 7-cyano-4-(ethylamino)-N-(2-(piperidin-2-yl)ethyl)-5H-pyrido[3,2-b]indole-3-carboxamide] |
| 33 | N#Cc1ccc2c(c1)[nH]c1c(NC3CC3)c(C(=O)N[C@H]3C[C@H](O)C3)cnc12 [Example 45, 7-cyano (cyclopropylamino)-N-((1R,3R)-3-hydroxycyclobutyl)-5H-pyrido[3,2-b]indole carboxamide] |
| 650 | CC(C)Nc1c(C(=O)NCCC2CC2)cnc2[nH]c3ccc(C#N)cc3c12 [Example 82, 6-cyano-N-(2-cyclopropylethyl)-4-(isopropylamino)-9H-pyrido[2,3-b]indole-3-carboxamide] |
| 580 | CC(C)Nc1c(C(=O)NC[C@@H](F)C(C)(C)O)cnc2c1[nH]c1cc(-c3ccc(=O)[nH]c3)ccc12 [Example 68, (R)—N-(2-fluoro-3-hydroxymethylbutyl)-4-(isopropylamino)-7-(6-oxo-1,6-dihydropyridin-3-yl)-5H-pyrido[3,2-b]indole-3-carboxamide] |
| 9.2 | CC(C)(O)CCNC(=O)c1cnc2c([nH]c3cc(C#N)ccc32)c1NC1COC1 [Example 41, 7-cyano-N-(3-hydroxy-3-methylbutyl) (oxetan-3-ylamino)-5H-pyrido[3,2-b]indole-3-carboxamide] |
| 100 | CC(C)Nc1c(C(=O)NCCc2nnn[nH]2)cnc2c1[nH]c1cc(C#N)ccc12 [Example 65, N-(2-(1H-tetrazol-5-yl)ethyl)-7-cyano-4-(isopropylamino)-5H-pyrido[3,2-b]indole-3-carboxamide] |
| 170 | CC(C)Nc1c(C(=O)NCC2(CO)COC2)cnc2c1[nH]c1cc(C#N)ccc12 [Example 7, 7-cyano-N-((3-(hydroxymethyl)oxetan-3-yl)methyl)-4-(isopropylamino)-5H-pyrido[3,2-b]indole-3-carboxamide] |
| 2.8 | CCNc1c(C(=O)NCCC2CCCNC2)cnc2c1[nH]c1cc(C#N)ccc12 (stereo not shown) [Example 55, 7-cyano-4-(ethylamino)-N-(2-(piperidin-3-yl)ethyl)-5H-pyrido[3,2-b]indole-3-carboxamide] |
| 33 | COC(=O)N[C@H]1C[C@H](NC(=O)c2cnc3c([nH]c4cc(C#N)ccc43)c2NC(C)C)C1 [Example 50, methyl ((1R,3R)-3-(7-cyano-4-(isopropylamino)-5H-pyrido[3,2-b]indole-3-carboxamido)cyclobutyl)carbamate] |
| 310 | CC(C)Nc1c(C(=O)NC(CCO)C2CC2)cnc2c1[nH]c1cc(C#N)ccc12 (stereo not shown) [Example 16, 7-cyano-N-(1-cyclopropyl-3-hydroxypropyl)-4-(isopropylamino)-5H-pyrido[3,2-b]indole-3-carboxamide] |
| 540 | CC(C)Nc1c(C(=O)NC[C@@H](F)C(C)(C)O)cnc2c1[nH]c1cc(C#N)cnc12 [Example 69, (R)-7-cyano-N-(2-fluoro-3-hydroxy-3-methylbutyl)-4-(isopropylamino)-5H-pyrrolo [3,2-b:4,5-b′]dipyridine-3-carboxamide] |
| 24 | N#Cc1ccc2c(c1)[nH]c1c(NC3COC3)c(C(=O)NCCC(F)(F)F)cnc12 [Example 42, 7-cyano-4-(oxetanylamino)-N-(3,3,3-trifluoropropyl)-5H-pyrido[3,2-b]indole-3-carboxamide] |

| IC50 [nM] | Structure (SMILES) |
| --- | --- |
| 40 | CC(C)Nc1c(C(=O)N[C@H]2C[C@H](N)C2)cnc2c1[nH]c1cc(C#N)ccc12 [Example 47, N-((1R,3R)-3-aminocyclobutyl)-7-cyano (isopropylamino)-5H-pyrido[3,2-b]indole-3-carboxamide] |
| 53 | CC(C)(O)[C@H](F)CNC(=O)c1cnc2c([nH]c3cc(C#N)ccc32)c1NC1CCN(S(C)(=O)=O)CC1 [Example 64, (R)-7-cyano-N-(2-fluoro-3-hydroxy-3-methylbutyl)-4-((1-(methylsulfonyl)piperidin-4-yl)amino)-5H-pyrido[3,2-b]indole-3-carboxamide] |
| 26 | CC(C)Nc1c(-c2cc(C3CNCCO3)no2)cnc2c1[nH]c1cc(C#N)ccc12 (stereo not shown) [Example 78, 4-(isopropylamino)-3-(3-(morpholin-2-yl)isoxazol-5-yl)-5H-pyrido[3,2-b]indole-7-carbonitrile] |
| 120 | CC(C)Nc1c(C(=O)N[C@H]2C[C@@H](O)C2)cnc2c1[nH]c1cc(C#N)ccc12 [Example 24, 7-cyano-N-((1s,3s)-3-hydroxycyclobutyl)-4-(isopropylamino)-5H-pyrido[3,2-b]indole-3-carboxamide] |
| 330 | CC(C)Nc1c(C(=O)NCC(C)(C)CO)cnc2c1[nH]c1cc(C#N)ccc12 [Example 9, 7-cyano-N-(3-hydroxy-2,2-dimethylpropyl)-4-(isopropylamino)-5H-pyrido[3,2-b]indole-3-carboxamide] |
| 14 | CC(C)(O)CCNC(=O)c1cnc2c([nH]c3cc(C#N)ccc32)c1NCC(F)(F)F [Example 37, 7-cyano-N-(3-hydroxy-3-methylbutyl)-4-((2,2,2-trifluoroethyl)amino)-5H-pyrido[3,2-b]indole-3-carboxamide] |
| 22 | CC(=O)N[C@H]1C[C@H](NC(=O)c2cnc3c([nH]c4cc(C#N)ccc43)c2NC(C)C)C1 [Example 49, N-((1R,3R)-3-acetamidocyclobutyl)-7-cyano-4-(isopropylamino)-5H-pyrido[3,2-b]indole-3-carboxamide] |
| 48 | CC(C)(O)CCNC(=O)c1cnc2c([nH]c3cc(C#N)ccc32)c1N[C@H]1CCOC1 [Example 28, (S)-7-cyano-N-(3-hydroxy-3-methylbutyl)-4-((tetrahydrofuran-3-yl)amino)-5H-pyrido[3,2-b]indole-3-carboxamide] |
| 30 | CC(C)Nc1c(C(=O)NC[C@@H](F)C(C)(C)O)cnc2c1[nH]c1cc(-c3cn[nH]c3)ccc12 [Example 67, (R)—N-(2-fluoro-3-hydroxy-3-methylbutyl)-4-(isopropylamino)-7-(1H-pyrazol-4-yl)-5H-pyrido[3,2-b]indole-3-carboxamide] |
| 240 | CC(C)Nc1c(C(=O)NCCC(C)(C)O)cnc2c1[nH]c1cc(C(N)=O)ccc12 [Example 48, N3-(3-hydroxy-3-methylbutyl)-4-(isopropylamino)-5H-pyrido[3,2-b]indole-3,7-dicarboxamide] |
| 11 | C[C@H](Nc1c(C(=O)NCCC(C)(C)O)cnc2c1[nH]c1cc(C#N)ccc12)C1CC1 [Example 29, (S)-7-cyano-4-((1-cyclopropylethyl)amino)-N-(3-hydroxy-3-methylbutyl)-5H-pyrido[3,2-b]indole-3-carboxamide] |
| 170 | CC(C)Nc1c(C(=O)NC[C@@H](F)C(C)(C)O)cnc2[nH]c3ccc(C#N)cc3c12 [Example 81, (R)-6-cyano-N-(2-fluoro-3-hydroxy-3-methylbutyl)-4-(isopropylamino)-9H-pyrido [2,3-b]indole-3-carboxamide] |
| 330 | CC(C)Nc1c(C(=O)NCC2(CO)CC2)cnc2c1[nH]c1cc(C#N)ccc12 [Example 8, 7-cyano-N-((1-(hydroxymethyl)cyclopropyl)methyl)-4-(isopropylamino)-5H-pyrido[3,2-b]indole-3-carboxamide] |
| 30.8 | CC(C)(O)CCNC(=O)c1cnc2c([nH]c3cc(C#N)ccc32)c1NCC1CC1 [Example 33, 7-cyano-4-((cyclopropylmethyl)amino)-N-(3-hydroxy-3-methylbutyl)-5H-pyrido[3,2-b] indole-3-carboxamide] |
| 20 | CC(C)Nc1c(C(=O)NC2CCNCC2)cnc2c1[nH]c1cc(C#N)ccc12 [Example 19, 7-cyano (isopropylamino)-N-(piperidin-4-yl)-5H-pyrido[3,2-b]indole-3-carboxamide] |
